Measurements published in patent US9095161B2, “Preparation and use of methionylmethionine as feed additive for fish and crustaceans” (EVONIK DEGUSSA GmbH, priority 2008, dated 2015).

Assays:
[1] = Leaching characteristics from feed pellets under water; type: physicochemical; settings: for dissolved out of feed pellets under water: 20.0 g pellets in 200 g water, 20° C.; for leaching compared with DL-methionine, MHA and calcium-MHA: compound feed pellets under water, identical conditions
Text: The feed matrix used was a methionine-deficient feed mixture of conventional ingredients such as, for example, soybean meal, soybean oil, cornstarch, wheat meal, fish meal, cellulose, crystalline essential amino acids and minerals and vitamins as premixes. This mixture was then supplemented batchwise in 20 kg batches in each case with the methionine derivatives stated in table 5, with a 0.25% supplementation rate (based on sulfur equivalents), and was homogenized and then pelleted with steam treatment. As comparison with methionylmethionine (I), a pelleting experiment was carried out in each case with DL-methionine, MHA (methionine hydroxy analog) and calcium MHA. In addition, a control experiment was carried out by pelleting without addition of a methionine derivative (see table 5). The leaching characteristics of the diastereomers of methionylmethionine (I) from the feed pellets was then investigated under water. In this case, the dissolving out of methionylmethionine under water as a function of time, temperature, water composition (salt or fresh water) was determined. […] All the Erlenmeyer flask was subsequently agitated continuously with a laboratory shaker at a constant temperature of 20° C. Then, at defined time intervals, a sample of water was removed in each case and the content of the individual pairs of methionylmethionine diastereomers in the water was determined by HPLC (see table 7). For comparison, in each case the feed pellets supplemented with DL-methionine, MHA or calcium MHA were investigated under the same conditions and thus their leaching characteristics under water determined under the respective conditions (see FIG. 5 and table 7).

[2] = Stability during pelleting and steam treatment of the feed mixture; type: physicochemical; settings: mixtures with natural protein and carbohydrate sources
Text: The feed matrix used was a methionine-deficient feed mixture of conventional ingredients such as, for example, soybean meal, soybean oil, cornstarch, wheat meal, fish meal, cellulose, crystalline essential amino acids and minerals and vitamins as premixes. This mixture was then supplemented batchwise in 20 kg batches in each case with the methionine derivatives stated in table 5, with a 0.25% supplementation rate (based on sulfur equivalents), and was homogenized and then pelleted with steam treatment. As comparison with methionylmethionine (I), a pelleting experiment was carried out in each case with DL-methionine, MHA (methionine hydroxy analog) and calcium MHA. In addition, a control experiment was carried out by pelleting without addition of a methionine derivative (see table 5). In this case, the amino acid determination was based on EU method 98/64/EC. After extraction of the free amino acids and methionylmethionine (I), these were subsequently determined with the aid of an amino acid analyzer by post-column derivatization with ninhydrin (see table 6).

[3] = system: Litopenaeus vannamei; settings: feeding experiments; cited from earlier work
[4] = system: enzyme cocktail of digestive and liver enzymes from carp
Description: The method for isolating the digestive enzymes was based on that of EID and MATTY (Aquaculture 1989, 79, 111-119). […] To isolate liver enzymes, the livers were isolated, homogenized and treated in analogy to the processing of the intestinal enzymes in example 22. The procedure for enzyme isolation from the pancreas was also analogous thereto.
D-Methionine was taken up in buffer solution, and the enzyme solution was added. A blank without enzyme solution was made up in each case as comparison and for estimating the purely chemical transformation rate. After 24 hours, a sample was taken and the composition was detected and quantified with the aid of calibrated HPLC.

[5] = system: chickens; settings: cited from earlier work

Row | biotransformation of D-methionine to L-methionine [4] | Compound | dissolved out of feed pellets under water ([1]; Time 0) [%] | dissolved out of feed pellets under water ([1]; Time 5) [%] | dissolved out of feed pellets under water ([1]; Time 10) [%] | dissolved out of feed pellets under water ([1]; Time 15) [%] | dissolved out of feed pellets under water ([1]; Time 30) [%] | dissolved out of feed pellets under water ([1]; Time 60) [%] | dissolved out of feed pellets under water ([1]; Time 120) [%] | dissolved out of feed pellets under water ([1]; Time 210) [%] | leaching compared with DL-methionine, MHA and calcium-MHA [1] | stability during pelleting, extrusion and steam treatment [2] | stability during pelleting, extrusion and steam treatment ([2]; listed as DL-methionyl-DL-methionine (I)) | stability during pelleting, extrusion and steam treatment ([2]; listed as methionylmethionine (I)) | activity as feed additive compared with L-methionine [3] | maximum dissolved out of the feed pellets ([1]; after a residence time of 200 min) [%] | biological value [5]
1 | – | CSCCC(N)C(=O)NC(CCSC)C(=O)O (mixture of isomers) [LL/DD/LD/DL-I, DL-methionyl-DL-methionine] | 1.5 | 2.0 | 3.2 | 3.6 | 5.4 | 9.5 | 12.3 | 17.0 | distinctly less leaching | stable | absolutely stable | remained stable | – | – | –
2 | – | CSCCC(O)C(=O)O (racemic) [MHA, rac-2-hydroxy-4-(methylthio)butanoic acid, reference compound] | 6.0 | 12.8 | 20.8 | 28.8 | 50.5 | 75.4 | 94.1 | 99.9 | – | – | – | – | – | – | –
3 | – | CSCCC(N)C(=O)O (racemic) [Methionine, DL-methionine] | 4.0 | 12.0 | 16.0 | 24.0 | 39.9 | 59.9 | 79.8 | 87.8 | – | – | – | – | same activity as L-methionine | – | –
4 | may be transformed into L-methionine | CSCC[C@@H](N)C(=O)O [D-methionine] | – | – | – | – | – | – | – | – | – | – | – | – | – | – | –
5 | – | CSCCC(N)C(=O)NC(CCSC)C(=O)O (stereo not drawn) [DL/LD-I, DL/LD-methionylmethionine] | 0.6 | 0.7 | 0.9 | 0.6 | 0.6 | 1.7 | 1.7 | 3.8 | distinctly less leaching | – | – | – | – | ≤ 5 | –
6 | – | CSCCC(N)C(=O)NC(CCSC)C(=O)O (stereo not shown) [LL/DD-I, DD/LL-methionylmethionine] | 2.7 | 3.7 | 6.5 | 7.7 | 12.1 | 20.6 | 27.4 | 35.9 | distinctly less leaching | – | – | – | – | – | –
7 | – | CSCCC(O)C(=O)[O-].CSCCC(O)C(=O)[O-].[Ca+2] (stereo not shown) [MHA-Ca, reference compound] | 8.6 | 16.5 | 28.2 | 39.4 | 61.7 | 82.4 | 94.1 | 97.0 | – | – | – | – | – | – | –
8 | – | poly-L-methionine | – | – | – | – | – | – | – | – | – | – | – | – | – | – | lack of biological value
